Measured values: patent publication US9029413B2, “Treatment of viral infections by modulation of host cell metabolic pathways” (The Trustees of Princeton University, priority 2007, dated 2015)
Entries after “also recorded” stand apart in the source; their conditions may differ. Like-named read-outs stand apart in the source and are kept apart here.

Experiments:
[1] = target: class III PI(3)K (Homo sapiens, UniProt Q8NEB9); conditions: cited from earlier work
[2] = tested on: human cytomegalovirus (HCMV); format: cell-based
[3] = tested on: host cells
Method: The toxicity of the diverse ACC inhibitors on host cells was determined by visual inspection of cell lawns and neutral red viability assay.

[4] = tested on: HCV replicon; conditions: cited from earlier work
[5] = tested on: Huh7 ET cells; test: Toxicity in Huh7 ET cultures (neutral red dye uptake); conditions: TOFA 10 μg/mL or 30 μg/mL
[6] = tested on: HCMV; conditions: TOFA 10 μg/mL
Method: (§2) A non-limiting example of an assay that can be performed to assess the effect of a combination of an ACC inhibitor plus Cox inhibitor on HCMV replication follows. […] In each assay, various concentrations of TOFA can be combined with various concentrations of indomethacin and assayed for their effect on virus replication. In one preferred embodiment, a physiological concentration of indomethacin is held constant as the dose of TOFA is increased. Control cultures are treated with no drug, indomethacin alone or the various concentrations of TOFA alone. […] The antiviral effect of indomethacin plus each concentration of TOFA is then compared to the activity of indomethacin alone or the various concentrations of TOFA alone.

[7] = tested on: West Nile virus (WNV); test: Extracellular viral RNA from WNV-infected Vero cells, real-time quantitative RT-PCR; format: cell-based; conditions: TOFA 20 μg/mL
Method: (§1) WNV and DV, members of the Flavivirus family of positive-strand RNA viruses, cause severe disease in humans. […] A reduction in the amount extracellular viral RNA or a delay in the accumulation of extracellular viral RNA during the drug treatment period will be indicative of anti-WNV or anti-DV activity. […] TOFA at 20 μg/mL results in ˜10-fold reduction, sometime greater, in accumulation of extracellular viral RNA. The accumulation of extracellular viral RNA is also delay compared to untreated cells.

[8] = tested on: host cell; test: Host cell toxicity of the TOFA and indomethacin combination (neutral red dye assay); conditions: combined use of TOFA and indomethacin
Method: as §2

[9] = tested on: hepatitis B virus (HBV) ayw strain; test: Extracellular HBV DNA from HepG2-2.2.15 cells, real-time quantitative PCR
Method: In one aspect, Compounds can be added to HepG2-2.2.15 culture to test whether Compound will reduce the production of secreted HBV from cells utilizing real time quantitative PCR (TaqMan) assay to measure HBV DNA copies. Specifically, confluent cultures of HepG2-2.2.15 cells cultured on 96-well flat-bottomed tissue culture plates and are treated with various concentration of daily doses of Compounds. HBV virion DNA in the culture medium can be assessed 24 hours after the last treatment by quantitative blot hybridization or real time quantitative PCR (TaqMan) assay. […] Lamivudine (3TC) can be used as a positive assay control.
As noted in section 5.4, HepG2-2.2.15 (Sells et al., PNAS 84, 1005-9, 1987) is a stable cell line containing the HBV ayw strain genome. Compounds blocking any step of viral replication and release can be assayed in these cells (Korba & Milman, Antiviral Res. 15:217-28, 1991). […] The medium with the ACC inhibitor is replaced every 24 hours, and media samples are removed after drug treatment for 24, 48, 72 or 96 hours and assayed for the presence of extracellular viral DNA by real-time quantitative PCR. A reduction in the amount extracellular viral DNA or a delay in its accumulation during the treatment period with the ACC inhibitor is indicative of anti-HBV activity. […] Lamivudine (3TC) is used as a positive assay control for inhibition of the production of extracellular HBV DNA (Korba & Gerin, Antivir. Res. 19:55-70, 1992).

[10] = cited from earlier work
[11] = tested on: Dengue virus (DV); test: Extracellular viral RNA from DV-infected Vero cells, real-time quantitative RT-PCR; format: cell-based; conditions: TOFA 20 μg/mL
Method: as §1

[12] = tested on: coxsackie B3 virus; conditions: cited from earlier work
[13] = tested on: HCV RNA replicon; test: HCV RNA replicon luciferase (LUC) reporter assay in Huh7 ET cells
[14] = tested on: HCMV-infected fibroblasts (MRC-5 cells); test: Effect on the metabolome of HCMV-infected fibroblasts (LC-MS/MS); format: cell-based, human; conditions: TOFA 20 μg/mL for 48 h
Method: Primary fibroblasts (MRC-5 cells) were grown in DMEM (high glucose) containing 7.5% FBS and infected at a multiplicity of 3.0 plaque forming units per cell (control cells were mock infected instead of virally infected). […] Mock-infected cells were then returned to growth medium (+DMSO vehicle) for 48 h. […] Metabolites were extracted into the methanol:water and samples analyzed by LC-MS/MS for a diversity of metabolites as described herein.

[15] = tested on: HCMV, influenza A, HIV-1, HBV or HCV; test: Viral replication with a combination of ACC inhibitor and HMG-CoA reductase inhibitor; format: cell-based; conditions: in the presence of a therapeutically effective concentration of the active form of lovastatin
[16] = tested on: HBV; conditions: cited from earlier work
[17] = dose 30 μg/mL, MOI 3.0, 72 hours post infection, two independent experiments, each with its own controls
[18] = dose 60 μg/mL, MOI 3.0, 72 hours post infection

class III PI(3)K, sequence (Q8NEB9 whole entry): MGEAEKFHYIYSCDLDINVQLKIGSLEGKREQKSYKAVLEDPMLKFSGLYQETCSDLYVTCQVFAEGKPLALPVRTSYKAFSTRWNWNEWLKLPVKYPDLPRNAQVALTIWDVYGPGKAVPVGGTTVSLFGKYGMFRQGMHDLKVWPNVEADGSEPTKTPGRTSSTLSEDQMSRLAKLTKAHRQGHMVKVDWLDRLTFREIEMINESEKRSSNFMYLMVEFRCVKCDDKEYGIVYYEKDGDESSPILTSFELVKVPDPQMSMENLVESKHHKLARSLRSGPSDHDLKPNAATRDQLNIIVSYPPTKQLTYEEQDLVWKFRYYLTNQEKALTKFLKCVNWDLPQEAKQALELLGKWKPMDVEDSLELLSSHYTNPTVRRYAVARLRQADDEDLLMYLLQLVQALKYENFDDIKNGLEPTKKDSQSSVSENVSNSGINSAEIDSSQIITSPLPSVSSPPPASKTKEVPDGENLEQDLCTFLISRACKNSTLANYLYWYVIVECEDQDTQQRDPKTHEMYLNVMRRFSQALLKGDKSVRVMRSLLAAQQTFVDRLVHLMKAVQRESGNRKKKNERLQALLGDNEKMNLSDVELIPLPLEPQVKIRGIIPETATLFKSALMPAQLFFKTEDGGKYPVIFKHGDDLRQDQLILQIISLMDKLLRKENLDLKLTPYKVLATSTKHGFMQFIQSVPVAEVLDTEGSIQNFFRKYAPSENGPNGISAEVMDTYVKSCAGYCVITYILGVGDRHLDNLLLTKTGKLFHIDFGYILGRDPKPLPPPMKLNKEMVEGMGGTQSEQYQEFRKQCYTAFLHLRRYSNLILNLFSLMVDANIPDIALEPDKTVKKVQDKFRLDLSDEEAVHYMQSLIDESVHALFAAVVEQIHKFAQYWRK

For `Cn1cnc(N)c2ncnc1-2` [3-methyladenine], the “inhibition of class III PI(3)K” value [1] is given as “inhibits class III PI(3)K” and the “inhibition of HCMV replication (relative infectious units in medium)” value ([2]; 3-methyladenine 5 mM, multiplicity of 0.01 pfu/cell) is given as “has antiviral activities; also recorded: inhibits the replication of human cytomegalovirus”.
In the case of `O=C(c1c2ccccc2cc2ccccc12)N1CCC(N2CCC[C@@H](C(=O)N3CCOCC3)C2)CC1` [CP-640186], the “toxicity on host cells by neutral red viability assay” value [3] is reported as “indistinguishable from DMSO control”, the “inhibition of HCMV replication” value ([2]; as stated in the text for FIGS. 18 and 19, dose not given) is reported as “approximately 50 fold” and the “Fold inhibition of viral replication” value [2, 17] is reported as 89.6 fold. The Viral yield [2, 17] was 16000 pfu/mL.
In the case of `CCCCCCCCCCCCCCOc1ccc(C(=O)O)o1` [TOFA, 5-(tetradecyloxy)-2-furoic acid], the “inhibition of HCV replication” value ([4]; TOFA 5 microg/ml, Huh-7 cells containing an HCV replicon) is given as “about 3 fold”, the “host cell toxicity by neutral red dye” value [5] is given as “absence of host cell toxicity” and the “magnitude of the therapeutic effect on HCMV replication” value ([6]; absence of indomethacin) is given as ~10 fold. The “magnitude of the therapeutic effect on HCMV replication” value ([6]; presence of indomethacin) was ~100 fold, the “reduction in accumulation of extracellular viral RNA (WNV)” value [7] was ~10 fold and the “host cell toxicity by neutral red dye assay” value [8] was “does not increase host cell toxicity”. The “reduction in extracellular HBV DNA” value ([9]; TOFA 3 μg/mL) was “small but statistically significant reduction”, the “reduction in production of extracellular HBV DNA” value ([9]; TOFA 10 μg/mL (range ~3 to ~30-fold)) was ~10 fold and the “impairment of production of extracellular HBV DNA” value ([9]; TOFA 30 μg/mL, greater than 100-fold in some cases) was “greater than 10 fold”. For the same compound, the adverse effects ([10]; rat, in vivo, 100 mg/kg/day) was “no adverse effects are observed”, the teratogenicity ([10]; rat, in vivo, 150 mg/kg/day) was “not teratogenic” and the “oral LD50” value ([10]; rats, oral) was “greater than 5,000 mg/kg”. For the same compound, the “reduction in accumulation of extracellular viral RNA (DV)” value [11] was ~10 fold, the “sensitivity of coxsackie B3 virus” value [12] was “insensitive” and the “reduction in LUC activity” value ([13]; TOFA 10 μg/mL) was ~10 fold. For the same compound, the “reduction in LUC activity” value ([13]; TOFA 30 μg/mL, in some experiments) was ≥ 100 fold, the “decrease in HCMV viral replication” value [2] was “roughly one” and the “decrease in HCMV viral replication” value ([2]; TOFA 20 μg/mL, MOI 3.0, GFP reporter virus, released virus only, 72 hours post infection) was “roughly two”. For the same compound, the “Fold inhibition of viral replication” value [2, 17] was 427.6 fold, the Viral yield [2, 17] was 7700 pfu/mL and the “Fold inhibition of viral replication” value [2, 18] was 82499.0 fold. For the same compound, the Viral yield [2, 18] was 40 pfu/mL, the “NADP+ levels in HCMV-infected cells” value [14] was “falling with TOFA treatment” and the “citrate concentration in HCMV-infected cells” value [14] was “yet greater increases in citrate concentration”. For the same compound, the “malonyl-CoA concentration in HCMV-infected cells” value [14] was “below the limit of detection; also recorded: blocked” and the “reduction of the TOFA concentration required to reduce viral growth and/or replication by 10-fold” value [15] was ≥ 2 fold.
With `CCOC(=O)C1(CCCCCCOc2ccc(Cl)cc2)CO1` (stereo not drawn) [Etomoxir] the “reduction of HCMV viral replication” value ([2]; Etomoxir 5 μM, AD169, multiplicity of infection 1.0, harvested 96 hours post infection) was “more than 1 log”.
In the case of `CC[C@H](C)C(=O)O[C@H]1C[C@@H](C)C=C2C=C[C@H](C)[C@H](CC[C@@H]3C[C@@H](O)CC(=O)O3)[C@H]21` [Lovastatin, lovastatin], the “inhibition of replication of HCV replicons” value ([4]; Huh-7 cells) is listed as “partially inhibit”, the “production of infectious HBV particles” value [16] is listed as “does not block production of infectious HBV particles” and the “secretion of HBV surface antigen, HBsAg” value [16] is listed as “inhibits secretion of the HBV surface antigen”.
